Measured values reported in ChEMBL document CHEMBL1201862, “PubChem BioAssay data set” (2004).
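In this assay, cells in 96-well plates receive the compound at five concentrations for 48 hours. Endpoints are linearly interpolated between the surrounding concentrations. At the GI50, growth is halved.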 Activity calls are given as the source filed them. Cut-off read from the data, not from the text of the source: active = GI50 up to about 1.1 µM and inactive = higher.

Assays:
Test in all cases: DTP human tumour cell line panel, 48 h
786-0 = tested on: 786-0
A498 = tested on: A498
A549 = tested on: A549
ACHN = tested on: ACHN
CAKI-1 = tested on: CAKI-1
CCRF-CEM = tested on: CCRF-CEM
COLO 205 = tested on: COLO 205
DLD-1 = tested on: DLD-1
DMS-114 = tested on: DMS-114
DMS-273 = tested on: DMS-273
EKVX = tested on: EKVX
HCT-116 = tested on: HCT-116
HCT-15 = tested on: HCT-15
HL-60 = tested on: HL-60
HOP-18 = tested on: HOP-18
HOP-62 = tested on: HOP-62
HOP-92 = tested on: HOP-92
HT-29 = tested on: HT-29
IGROV-1 = tested on: IGROV-1
K562 = tested on: K562
KM12 = tested on: KM12
LOX IMVI = tested on: LOX IMVI
LXFL 529 = tested on: LXFL 529
M14 = tested on: M14
M19-MEL = tested on: M19-MEL
MOLT-4 = tested on: MOLT-4
Malme-3M = tested on: Malme-3M
NCI-H226 = tested on: NCI-H226
NCI-H23 = tested on: NCI-H23
NCI-H460 = tested on: NCI-H460
NCI-H522 = tested on: NCI-H522
OVCAR-3 = tested on: OVCAR-3
OVCAR-4 = tested on: OVCAR-4
OVCAR-5 = tested on: OVCAR-5
OVCAR-8 = tested on: OVCAR-8
RPMI-8226 = tested on: RPMI-8226
RXF 393 = tested on: RXF 393
RXF 631 = tested on: RXF 631
SF-268 = tested on: SF-268
SF-295 = tested on: SF-295
SF-539 = tested on: SF-539
SK-MEL-28 = tested on: SK-MEL-28
SK-MEL-2 = tested on: SK-MEL-2
SK-MEL-5 = tested on: SK-MEL-5
SK-OV-3 = tested on: SK-OV-3
SN12C = tested on: SN12C
SNB-19 = tested on: SNB-19
SNB-75 = tested on: SNB-75
SNB-78 = tested on: SNB-78
SR = tested on: SR
SW-620 = tested on: SW-620
TK-10 = tested on: TK-10
U-251 = tested on: U-251
UACC-257 = tested on: UACC-257
UACC-62 = tested on: UACC-62
UO-31 = tested on: UO-31
XF498 = tested on: XF498
HCC 2998 = tested on: HCC 2998
KM-20L2 = tested on: KM-20L2

O=C(O)CC(O)(c1ccccc1C(=O)O)c1cccc2ccccc12 (centres undefined)
GI50 (786-0): > 100 µM (inactive)
GI50 (A498): > 100 µM (inactive)
GI50 (A549): > 100 µM (inactive)
GI50 (ACHN): > 100 µM (inactive)
GI50 (CAKI-1): > 100 µM (inactive)
GI50 (CCRF-CEM): > 100 µM (inactive)
GI50 (COLO 205): > 100 µM (inactive)
GI50 (DLD-1): > 100 µM (inactive)
GI50 (DMS-114): > 100 µM (inactive)
GI50 (DMS-273): > 100 µM (inactive)
GI50 (EKVX): > 100 µM (inactive)
GI50 (HCT-116): > 100 µM (inactive)
GI50 (HCT-15): > 100 µM
GI50 (HL-60): > 100 µM (inactive)
GI50 (HOP-18): > 100 µM (inactive)
GI50 (HOP-62): > 100 µM (inactive)
GI50 (HOP-92): > 100 µM (inactive)
GI50 (HT-29): > 100 µM (inactive)
GI50 (IGROV-1): > 100 µM (inactive)
GI50 (K562): > 100 µM (inactive)
GI50 (KM12): > 100 µM (inactive)
GI50 (LOX IMVI): > 100 µM (inactive)
GI50 (LXFL 529): > 100 µM (inactive)
GI50 (M14): > 100 µM (inactive)
GI50 (M19-MEL): > 100 µM (inactive)
GI50 (MOLT-4): > 100 µM (inactive)
GI50 (Malme-3M): > 100 µM (inactive)
GI50 (NCI-H226): > 100 µM (inactive)
GI50 (NCI-H23): > 100 µM (inactive)
GI50 (NCI-H460): > 100 µM (inactive)
GI50 (NCI-H522): > 100 µM (inactive)
GI50 (OVCAR-3): > 100 µM (inactive)
GI50 (OVCAR-4): > 100 µM (inactive)
GI50 (OVCAR-5): > 100 µM (inactive)
GI50 (OVCAR-8): > 100 µM (inactive)
GI50 (RPMI-8226): > 100 µM (inactive)
GI50 (RXF 393): > 100 µM (inactive)
GI50 (RXF 631): > 100 µM (inactive)
GI50 (SF-268): > 100 µM (inactive)
GI50 (SF-295): > 100 µM (inactive)
GI50 (SF-539): > 100 µM (inactive)
GI50 (SK-MEL-28): > 100 µM (inactive)
GI50 (SK-MEL-2): > 100 µM (inactive)
GI50 (SK-MEL-5): > 100 µM (inactive)
GI50 (SK-OV-3): > 100 µM (inactive)
GI50 (SN12C): > 100 µM (inactive)
GI50 (SNB-19): > 100 µM (inactive)
GI50 (SNB-75): > 100 µM (inactive)
GI50 (SNB-78): > 100 µM (inactive)
GI50 (SR): > 100 µM (inactive)
GI50 (SW-620): > 100 µM (inactive)
GI50 (TK-10): > 100 µM (inactive)
GI50 (U-251): > 100 µM (inactive)
GI50 (UACC-257): > 100 µM (inactive)
GI50 (UACC-62): > 100 µM (inactive)
GI50 (UO-31): > 100 µM (inactive)
GI50 (XF498): > 100 µM (inactive)

COc1cc(=O)oc(/C=C/CO)c1C
GI50 (786-0): > 100 µM (inactive)
GI50 (A498): > 100 µM (inactive)
GI50 (A549): > 100 µM (inactive)
GI50 (ACHN): > 100 µM (inactive)
GI50 (CAKI-1): > 100 µM (inactive)
GI50 (CCRF-CEM): > 100 µM (inactive)
GI50 (COLO 205): > 100 µM (inactive)
GI50 (DLD-1): > 100 µM (inactive)
GI50 (DMS-114): > 100 µM (inactive)
GI50 (DMS-273): > 100 µM (inactive)
GI50 (EKVX): > 100 µM (inactive)
GI50 (HCC 2998): > 100 µM (inactive)
GI50 (HCT-116): > 100 µM (inactive)
GI50 (HL-60): > 100 µM (inactive)
GI50 (HOP-18): > 100 µM (inactive)
GI50 (HOP-62): > 100 µM (inactive)
GI50 (HOP-92): > 100 µM (inactive)
GI50 (HT-29): > 100 µM (inactive)
GI50 (IGROV-1): > 100 µM (inactive)
GI50 (K562): > 100 µM (inactive)
GI50 (KM-20L2): > 100 µM (inactive)
GI50 (KM12): > 100 µM (inactive)
GI50 (LOX IMVI): > 100 µM (inactive)
GI50 (LXFL 529): > 100 µM (inactive)
GI50 (M14): > 100 µM (inactive)
GI50 (M19-MEL): > 100 µM (inactive)
GI50 (MOLT-4): > 100 µM (inactive)
GI50 (Malme-3M): > 100 µM (inactive)
GI50 (NCI-H226): > 100 µM (inactive)
GI50 (NCI-H23): > 100 µM (inactive)
GI50 (NCI-H522): 28.9 µM (inactive)
GI50 (OVCAR-3): > 100 µM (inactive)
GI50 (OVCAR-4): > 100 µM (inactive)
GI50 (OVCAR-5): > 100 µM (inactive)
GI50 (OVCAR-8): > 100 µM (inactive)
GI50 (RXF 393): > 100 µM (inactive)
GI50 (RXF 631): > 100 µM (inactive)
GI50 (SF-268): > 100 µM (inactive)
GI50 (SF-295): > 100 µM (inactive)
GI50 (SF-539): > 100 µM (inactive)
GI50 (SK-MEL-28): > 100 µM (inactive)
GI50 (SK-MEL-5): > 100 µM (inactive)
GI50 (SK-OV-3): > 100 µM (inactive)
GI50 (SN12C): > 100 µM (inactive)
GI50 (SNB-19): > 100 µM (inactive)
GI50 (SNB-75): > 100 µM (inactive)
GI50 (SR): > 100 µM (inactive)
GI50 (SW-620): > 100 µM (inactive)
GI50 (TK-10): > 100 µM (inactive)
GI50 (U-251): > 100 µM (inactive)
GI50 (UACC-257): > 100 µM (inactive)
GI50 (UACC-62): > 100 µM (inactive)
GI50 (UO-31): > 100 µM (inactive)
GI50 (XF498): > 100 µM (inactive)

CC1=C(C(=O)CC(=O)C(=O)Nc2cc(C)ccc2C)Sc2ccccc2N1
GI50 (786-0): > 100 µM (inactive)
GI50 (A549): > 100 µM (inactive)
GI50 (ACHN): > 100 µM (inactive)
GI50 (CAKI-1): > 100 µM (inactive)
GI50 (CCRF-CEM): 80.9 µM (inactive)
GI50 (DLD-1): 92.3 µM (inactive)
GI50 (DMS-114): > 100 µM (inactive)
GI50 (EKVX): > 100 µM (inactive)
GI50 (HCC 2998): > 100 µM (inactive)
GI50 (HCT-116): > 100 µM (inactive)
GI50 (HCT-15): > 100 µM
GI50 (HL-60): > 100 µM (inactive)
GI50 (HOP-18): > 100 µM (inactive)
GI50 (HOP-62): > 100 µM (inactive)
GI50 (HOP-92): 85.7 µM (inactive)
GI50 (HT-29): > 100 µM (inactive)
GI50 (IGROV-1): > 100 µM (inactive)
GI50 (K562): > 100 µM (inactive)
GI50 (KM12): > 100 µM (inactive)
GI50 (LOX IMVI): > 100 µM (inactive)
GI50 (LXFL 529): > 100 µM (inactive)
GI50 (M14): > 100 µM (inactive)
GI50 (M19-MEL): > 100 µM (inactive)
GI50 (MOLT-4): 66.7 µM (inactive)
GI50 (Malme-3M): > 100 µM (inactive)
GI50 (NCI-H226): > 100 µM (inactive)
GI50 (NCI-H23): > 100 µM (inactive)
GI50 (NCI-H460): > 10 µM (inactive)
GI50 (NCI-H522): > 100 µM (inactive)
GI50 (OVCAR-3): > 100 µM (inactive)
GI50 (OVCAR-4): > 100 µM (inactive)
GI50 (OVCAR-5): > 100 µM (inactive)
GI50 (OVCAR-8): 66.8 µM (inactive)
GI50 (RPMI-8226): > 100 µM (inactive)
GI50 (RXF 393): > 100 µM (inactive)
GI50 (RXF 631): > 100 µM (inactive)
GI50 (SF-268): > 100 µM (inactive)
GI50 (SF-295): 32 µM (inactive)
GI50 (SF-539): > 100 µM (inactive)
GI50 (SK-MEL-28): > 100 µM (inactive)
GI50 (SK-MEL-2): > 100 µM (inactive)
GI50 (SK-MEL-5): > 100 µM (inactive)
GI50 (SK-OV-3): > 100 µM (inactive)
GI50 (SN12C): > 100 µM (inactive)
GI50 (SNB-19): > 100 µM (inactive)
GI50 (SNB-78): > 100 µM (inactive)
GI50 (SW-620): > 100 µM (inactive)
GI50 (TK-10): > 100 µM (inactive)
GI50 (U-251): > 100 µM (inactive)
GI50 (UACC-257): > 100 µM (inactive)
GI50 (UACC-62): > 100 µM (inactive)
GI50 (UO-31): > 100 µM (inactive)
GI50 (XF498): > 100 µM (inactive)
